Assay results reported in article PMC12027554, “Inhibition of ABCG2 by SCO-101 Enhances Chemotherapy Efficacy in Cancer” (International Journal of Molecular Sciences, 2025).

Columns and labels:
HT29SN-38 cells [1] = test: Cell viability assay (MTT / CCK-8), SN-38-resistant HT29; assay type: cell-based, human
Procedure: (§1) Cells were seeded at a density of 0.2–1 × 10^4 cells/well into 96-well plates. One day after seeding, treatments were performed in triplicate for 72 h, or as otherwise indicated in the relevant panel/figure legend and kept at 37 °C/5% CO2. Growth medium alone (“untreated” cells) or DMSO was used as a control.
For MTT assays, media were replaced at the final timepoint with 100 μL of 1:10 MTT reagent (0.5 mg/mL in PBS) diluted in growth medium, and plates were incubated for 3 h. A total of 100 μL/well of stop buffer (50 g Sodium Dodecyl Sulfate, 245 mL ddH2O, 5 mL 1N HCl) was added and plates incubated for 24 h to let colored formazan crystals develop. Optical densities (ODs) were measured with a PowerWave^TM Microplate spectrophotometer (BioTek, Winooski, VT, USA) at 570 nm and 670 nm (background).
For CCK-8 assays, 100 μL of 1:10 CCK-8 reagent (pevonedistat-treated HT29 cells) diluted in medium was added to each well and cells incubated for 1–2 h at 37 °C. OD values were measured at 450 nm with a VersaMax microplate spectrophotometer (Molecular Devices, San Jose, CA, USA).
Background values were subtracted prior to further analysis. The percentage of cell viability was expressed as relative values versus untreated cells as determined by the various assays. EC50/IC50 values were calculated using GraphPad Prism (v10.4.1) and the in-built non-linear regression [log (inhibitor) vs. response—variable slope (four parameters)] calculation. For determination of synergy scores, the online tool SynergyFinder+ (https://synergyfinder.org access date 15 February 2025) was employed following 4 × 4- or 6 × 6-matrix dose-escalation cell viability experiments. Doses of drugs are indicated in the relevant figure legends and ranges have been chosen based on the response of cells to single-drug dose-dependent experiments. Synergy scores were calculated using the ZIP model, which takes the advantages of both the Loewe additivity and the Bliss independence models, aiming at a systematic assessment of various types of drug interaction patterns that may arise in a high-throughput drug combination screening.

MKN45 cells = test: Cell viability assay (CellTiter-Glo), MKN45; assay type: cell-based; settings: Homo sapiens, MKN-45, 96 h
Procedure: as §1
For SCH, SNU-5, and MKN45 cells, 50 μL of CellTiter-Glo® Reagent (Promega; Madison, WI, USA) was added to each well at the end of the treatments. The content was mixed for 5 min to facilitate cell lysis and plates incubated at room temperature for 10 min to stabilize luminescent signals, which were then recorded using an EnVision Multi Label Reader (PerkinElmer; Waltham, MA, USA).
Background values were subtracted prior to further analysis. The percentage of cell viability was expressed as relative values versus untreated cells as determined by the various assays. EC50/IC50 values were calculated using GraphPad Prism (v10.4.1) and the in-built non-linear regression [log (inhibitor) vs. response—variable slope (four parameters)] calculation. […] Synergy scores were calculated using the ZIP model, which takes the advantages of both the Loewe additivity and the Bliss independence models, aiming at a systematic assessment of various types of drug interaction patterns that may arise in a high-throughput drug combination screening.

HT29SN-38 cells [2] = test: Cellular dye efflux assay (Hoechst 33342), resistant cells; assay type: cell-based, human; settings: SCO-101 20 µM, Ko-143 1 µM, PSC833 1 µM
Procedure: Twenty-four hours before the experiments, cells were seeded into 96-well Nunclon^TM plates at a density of 6000 (HT29), 7000 (PANC-1) or 8000 (LoVo) cells/well. The following day, cells were treated in triplicate with the relevant drugs at the indicated concentrations for 1 h. Next, 5 μg/mL Hoechst 33342 was added to the wells, and plates incubated at 37 °C for 30 min^−1 h. Cells were washed with cold PBS, treatments re-added and plates re-incubated at 37 °C for 30 min to 1 h. Plates were analyzed using a Celigo® (Nexcelom Bioscience, Lawrence, MA, USA) imaging cytometer. Data are expressed as percentages of fluorescence intensity, calculated through the following formula: % fluorescence intensity=Mean fluorescence intensity of sample/Mean fluorescence intensity of parental control×100
Fluorescent images were captured with an Olympus® IX71/TH4-200 microscope equipped with an Olympus® DP72 camera (Shinjuku, Tokyo, Japan), and cells were seeded at a 1.5 × 10^5 cells/well density and treated as described above.

MDR1/ABCB1 = MDR1/ABCB1 (Homo sapiens, UniProt P08183); test: Efflux transporter inhibition, vesicular uptake into inside-out membrane vesicles (ABCB1); assay type: biochemical; settings: 1 μM N-methyl-quinidine
MDR1/ABCB1, sequence (P08183 whole entry): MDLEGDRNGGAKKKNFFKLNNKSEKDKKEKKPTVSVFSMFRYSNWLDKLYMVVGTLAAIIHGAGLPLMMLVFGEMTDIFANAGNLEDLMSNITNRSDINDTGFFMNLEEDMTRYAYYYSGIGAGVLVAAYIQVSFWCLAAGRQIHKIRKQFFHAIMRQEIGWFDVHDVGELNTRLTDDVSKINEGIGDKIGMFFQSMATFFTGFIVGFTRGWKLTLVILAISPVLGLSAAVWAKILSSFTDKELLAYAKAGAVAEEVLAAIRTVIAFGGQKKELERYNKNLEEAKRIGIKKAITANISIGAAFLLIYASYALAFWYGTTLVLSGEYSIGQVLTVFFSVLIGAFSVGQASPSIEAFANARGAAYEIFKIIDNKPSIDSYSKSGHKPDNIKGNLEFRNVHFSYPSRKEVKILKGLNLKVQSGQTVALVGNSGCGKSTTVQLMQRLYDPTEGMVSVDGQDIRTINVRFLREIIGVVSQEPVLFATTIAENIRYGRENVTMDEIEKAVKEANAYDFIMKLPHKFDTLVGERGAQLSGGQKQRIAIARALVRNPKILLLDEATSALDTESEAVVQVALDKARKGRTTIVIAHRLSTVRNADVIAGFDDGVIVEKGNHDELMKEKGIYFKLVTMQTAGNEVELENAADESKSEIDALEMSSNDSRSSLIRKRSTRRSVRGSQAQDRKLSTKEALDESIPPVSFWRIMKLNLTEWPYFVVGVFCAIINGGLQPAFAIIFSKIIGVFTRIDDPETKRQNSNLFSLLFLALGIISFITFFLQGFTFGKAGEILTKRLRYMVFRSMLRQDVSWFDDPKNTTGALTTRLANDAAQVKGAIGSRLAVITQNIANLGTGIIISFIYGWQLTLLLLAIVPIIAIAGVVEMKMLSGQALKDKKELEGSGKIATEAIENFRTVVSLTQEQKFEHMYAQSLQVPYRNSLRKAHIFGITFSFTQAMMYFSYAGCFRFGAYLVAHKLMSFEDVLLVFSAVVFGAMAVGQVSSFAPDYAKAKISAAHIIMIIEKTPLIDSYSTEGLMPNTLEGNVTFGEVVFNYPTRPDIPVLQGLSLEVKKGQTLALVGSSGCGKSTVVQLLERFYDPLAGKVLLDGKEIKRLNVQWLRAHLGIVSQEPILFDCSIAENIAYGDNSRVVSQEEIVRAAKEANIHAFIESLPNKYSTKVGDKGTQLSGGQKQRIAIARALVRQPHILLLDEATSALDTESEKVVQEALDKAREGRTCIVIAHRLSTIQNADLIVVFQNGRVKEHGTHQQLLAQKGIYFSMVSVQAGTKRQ
Procedure: Efflux transporter inhibition was evaluated by measuring vesicular uptake into inside-out membrane vesicles (SOLVO biotechnology, Budapest, Hungary) expressing a single human ABC transporter (0.67 mg/mL ABCB1; 0.67 mg/mL ABCC2; 0.33 mg/mL ABCG2 membrane protein) of a probe substrate (1 μM N-methyl-quinidine for ABCB1; 100 μM 5(6)-carboxy-2′,7′-dichlorofluorescein for ABCC2; 1 μM Eestrone-3-sulfate for ABCG2) in the presence of SCO-101 with and without ATP (4 mM) in 96-well plate format. Control solvent and control inhibitors (4–60 μM verapamil for […]; 1–15 μM sulfasalazine for ABCG2; 5.5–150 μM benzbromarone for ABCC2) were incubated in parallel. Vesicular uptake was conducted at 37 °C in incubation buffer (10 mM Tris-HCl, pH 7.4, 10 mM MgCl2, 250 mM sucrose) and terminated after 1 min (ABCB1 and ABCG2) or 5 min (ABCC2) by adding ice-cold washing buffer (10 mM Tris-HCl, pH 7.4, 100 mM NaCl, 250 mM sucrose). […] Probe quantification was conducted using LC-MS/MS peak areas (solvent control with ATP − AMP = 100%). […] The remaining transporter activity % was calculated according to the formula below, and fitting was performed using GraphPad Prism: A%=AATP,sample−AAMP,sample/AATP,solvent−AAMP,solvent

IC50 (HT29SN-38 cells [1]; Homo sapiens, HT-29, 72 h): > 25 µM
IC50 (MKN45 cells): > 50 µM
IC50 (MDR1/ABCB1): 16.1 µM
SMILES: O=C(Nc1cc(C(F)(F)F)cc(C(F)(F)F)c1)Nc1ccc(Br)cc1-c1nnn[nH]1 [SCO-101, N-[4-Bromo-2-(1H-1,2,3,4-tetrazol-5-yl)phenyl]-N′-[3,5-bis(trifluoromethyl)phenyl]urea]
cell viability, SCO-101 in combination with SN-38 (HT29SN-38 cells [1]; SCO-101 0–50 µM + SN-38 0.08 μM): re-sensitization
cell viability after 24 h combination treatment and drug washout (HT29SN-38 cells [1]; SCO-101 15 μM + SN-38 0.5 μM, washout 48 h or 120 h): significant cytotoxic effect
cell viability after 24 h single treatment and drug washout (HT29SN-38 cells [1]; SCO-101 15 μM or SN-38 0.5 μM alone, washout 48 h or 120 h): did not affect cell viability
H33342 dye accumulation (HT29SN-38 cells [2]): restored
